Test results taken from PubChem BioAssay AID330 (DTP/NCI, 2004).
Values joined by “and” are separate entries in the source; they are usually repeats but may differ in a detail not shown here. Equal values may be shown once. Toxic doses and inconclusive results are not listed.

Test system: P388 leukemia ip, CD2F1 mice, survival T/C
Test: NCI In Vivo Anticancer Drug Screen. Data for tumor model P388 Leukemia (intraperitoneal) in CD2F1 (CDF1) mice
Conditions: endpoint: median survival time, higher = longer survival
How it was run: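 Mice carrying the transplanted tumor received test compound or vehicle. Survival was recorded in each group, and the value is the treated-group measurement divided by that of the vehicle-treated control group.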

[1] = dose: 50.0 mg/kg/injection, schedule: Q01DX005 (ip), vehicle: Klucel (hydroxypropylcellulose) (HPC)
[2] = dose: 100.0 mg/kg/injection, schedule: Q01DX005 (ip), vehicle: Klucel (hydroxypropylcellulose) (HPC)
[3] = dose: 200.0 mg/kg/injection, schedule: Q01DX005 (ip), vehicle: Klucel (hydroxypropylcellulose) (HPC)
[4] = dose: 50.0 mg/kg/injection, schedule: Q01DX009 (ip), vehicle: saline with Tween-80
[5] = dose: 100.0 mg/kg/injection, schedule: Q01DX009 (ip), vehicle: saline with Tween-80
[6] = dose: 200.0 mg/kg/injection, schedule: Q01DX009 (ip), vehicle: saline with Tween-80
[7] = dose: 60.0 mg/kg/injection, schedule: Q01DX005 (ip), vehicle: saline with Tween-80
[8] = dose: 120.0 mg/kg/injection, schedule: Q01DX005 (ip), vehicle: saline with Tween-80
[9] = dose: 240.0 mg/kg/injection, schedule: Q01DX005 (ip), vehicle: saline with Tween-80

For `CC(C)NC(=O)OCc1c(COC(=O)NC(C)C)c(-c2ccc(Cl)c(Cl)c2)n2c1CC(OC(=O)CN(C)C)C2` (centres undefined), the T/C (dose: 2.5 mg/kg/injection, schedule: Q01DX009 (ip), vehicle: water) was 101 % of control, the T/C (dose: 5.0 mg/kg/injection, schedule: Q01DX009 (ip), vehicle: distilled water + Tween-80) was 111 % of control and the T/C (dose: 5.0 mg/kg/injection, schedule: Q01DX009 (ip), vehicle: water) was 117 % of control. The T/C (dose: 10.0 mg/kg/injection, schedule: Q01DX009 (ip), vehicle: distilled water + Tween-80) was 122 % of control and the T/C (dose: 80.0 mg/kg/injection, schedule: Q01DX009 (ip), vehicle: water) was 110 % of control.
In the case of `COc1cccc2c1C(=O)c1c(O)c3c(c(O)c1C2=O)[C@@H](OC)[C@@](O)(C(=O)CO)C[C@@H]3OC1CC(N)C(O)C(C)O1` (some centres undefined), the T/C (dose: 3.13 mg/kg/injection, schedule: Q04DX003 (ip), vehicle: water) is reported as 108 % of control and 123 % of control, the T/C (dose: 12.5 mg/kg/injection, schedule: Q04DX003 (ip), vehicle: water) is reported as 115 % of control and the T/C (dose: 25.0 mg/kg/injection, schedule: Q04DX003 (ip), vehicle: water) is reported as 106 % of control and 115 % of control. For the same compound, the T/C (dose: 50.0 mg/kg/injection, schedule: Q04DX003 (ip), vehicle: water) was 104 % of control.
For `O=[N+]([O-])c1cc(Br)cc2c1[nH]c1nc3ccc(C(F)(F)F)cc3nc12`, the T/C (dose: 100.0 mg/kg/injection, schedule: Q04DX003 (ip), vehicle: saline) was 91 % of control, the T/C (dose: 200.0 mg/kg/injection, schedule: Q04DX003 (ip), vehicle: saline) was 95 % of control and the T/C (dose: 400.0 mg/kg/injection, schedule: Q04DX003 (ip), vehicle: saline) was 94 % of control.
With `O=C(/C=C/c1ccccc1)NCCC1(O)C(=O)Nc2ccccc21` (centres undefined) the T/C (dose: 25.0 mg/kg/injection, schedule: Q01DX005 (ip), vehicle: Klucel (hydroxypropylcellulose) (HPC)) was 102 % of control, the T/C [1] was 100 % of control and the T/C [2] was 90 % of control. For the same compound, the T/C [3] was 88 % of control.
With `CC(CO)/[N+]([O-])=N/O` (centres undefined) the T/C (dose: 6.0 mg/kg/injection, schedule: Q01DX005 (ip), vehicle: Klucel (hydroxypropylcellulose) (HPC)) was 95 % of control, the T/C (dose: 12.0 mg/kg/injection, schedule: Q01DX005 (ip), vehicle: Klucel (hydroxypropylcellulose) (HPC)) was 94 % of control and the T/C (dose: 24.0 mg/kg/injection, schedule: Q01DX005 (ip), vehicle: Klucel (hydroxypropylcellulose) (HPC)) was 100 % of control. For the same compound, the T/C (dose: 48.0 mg/kg/injection, schedule: Q01DX005 (ip), vehicle: Klucel (hydroxypropylcellulose) (HPC)) was 100 % of control.
In the case of `OC(Nc1ncccn1)C(F)(F)F` (centres undefined), the T/C [4] is reported as 92 % of control, the T/C [5] is reported as 111 % of control and the T/C [6] is reported as 120 % of control.
With `C=C1C(=O)OC2CC1C(OC(C)=O)CC1(C)OC1CCC1(C)OC1CCC2(C)O` (centres undefined) the T/C (dose: 6.26 mg/kg/injection, schedule: Q01DX009 (ip), vehicle: Klucel (hydroxypropylcellulose) (HPC)) was 119 % of control, the T/C (dose: 12.5 mg/kg/injection, schedule: Q01DX009 (ip), vehicle: Klucel (hydroxypropylcellulose) (HPC)) was 117 % of control and the T/C (dose: 25.0 mg/kg/injection, schedule: Q01DX009 (ip), vehicle: Klucel (hydroxypropylcellulose) (HPC)) was 123 % of control.
With `c1ccc(SCCC(Sc2ccccc2)Sc2ccccc2)cc1` the T/C (dose: 50.0 mg/kg/injection, schedule: Q01DX009 (ip), vehicle: saline) was 100 % of control, the T/C (dose: 100.0 mg/kg/injection, schedule: Q01DX009 (ip), vehicle: saline) was 106 % of control and the T/C (dose: 200.0 mg/kg/injection, schedule: Q01DX009 (ip), vehicle: saline) was 106 % of control.
`COC(=O)/C=C1\C=CC=CN1C` was tested, and the T/C [4] was 105 % of control, the T/C [5] was 106 % of control and the T/C [6] was 106 % of control.
`Cc1c([N+](=O)[O-])cc(N)cc1S(=O)(=O)O` was tested, and the T/C [1] was 96 % of control, the T/C [2] was 96 % of control and the T/C [3] was 93 % of control.
With `CCOC(=O)CCCCCCCCNC(=O)N1c2c(nc(N)[nH]c2=O)NCC1CNc1ccc(C(=O)NC(CCC(=O)O)C(=O)O)cc1` (centres undefined) the T/C (dose: 50.0 mg/kg/injection, schedule: Q04DX003 (ip), vehicle: Klucel (hydroxypropylcellulose) (HPC)) was 111 % of control, the T/C (dose: 100.0 mg/kg/injection, schedule: Q04DX003 (ip), vehicle: Klucel (hydroxypropylcellulose) (HPC)) was 106 % of control and the T/C (dose: 200.0 mg/kg/injection, schedule: Q04DX003 (ip), vehicle: Klucel (hydroxypropylcellulose) (HPC)) was 108 % of control.
`CCOC(=O)CC(=O)c1sc(SC)c(C#N)c1N` was tested, and the T/C (dose: 50.0 mg/kg/injection, schedule: Q01DX005 (ip), vehicle: saline with Tween-80) was 106 % of control, the T/C (dose: 100.0 mg/kg/injection, schedule: Q01DX005 (ip), vehicle: saline with Tween-80) was 100 % of control and the T/C (dose: 200.0 mg/kg/injection, schedule: Q01DX005 (ip), vehicle: saline with Tween-80) was 93 % of control.
In the case of `Cc1nnc(NC(=O)c2cc(=O)c3cc(Cl)ccc3o2)s1`, the T/C [1] is reported as 100 % of control, the T/C [2] is reported as 106 % of control and the T/C [3] is reported as 100 % of control.
In the case of `O=[N+]([O-])c1cccc(S(=O)(=O)N/N=C/c2cc([N+](=O)[O-])cc(I)c2O)c1`, the T/C [7] is reported as 103 % of control, the T/C [8] is reported as 95 % of control and the T/C [9] is reported as 111 % of control.
`CC(=O)OCC#CCN1CCCCC1` was tested, and the T/C (dose: 6.25 mg/kg/injection, schedule: Q01DX005 (ip), vehicle: saline) was 102 % of control, the T/C (dose: 12.5 mg/kg/injection, schedule: Q01DX005 (ip), vehicle: saline) was 104 % of control and the T/C (dose: 25.0 mg/kg/injection, schedule: Q01DX005 (ip), vehicle: saline) was 101 % of control.
With `COC(=O)c1c[nH]c(=O)[nH]c1=O` the T/C [7] was 94 % of control, the T/C [8] was 105 % of control and the T/C [9] was 112 % of control.
For `COC1C(O)CC(OC2CC(Oc3cc4cc5c(c(O)c4c(O)c3C)C(=O)[C@@H](OC3CC(OC4CC(OC6CC(C)(O)C(OC(C)=O)C(C)O6)C(O)C(C)O4)C(O)C(C)O3)[C@H]([C@H](OC)C(=O)[C@@H](O)[C@@H](C)O)C5)OC(C)C2OC(C)=O)OC1C` (some centres undefined), the T/C (dose: 0.02 mg/kg/injection, schedule: Q01DX001 (ip), vehicle: other) was 114 % of control, the T/C (dose: 0.02 mg/kg/injection, schedule: Q01DX009 (ip), vehicle: saline sonified) was 150 % of control and the T/C (dose: 0.03 mg/kg/injection, schedule: Q01DX005 (ip), vehicle: saline) was 150 % of control. The T/C (dose: 0.03 mg/kg/injection, schedule: Q01DX005 (iv), vehicle: saline) was 95 % of control, the T/C (dose: 0.03 mg/kg/injection, schedule: Q01DX009 (ip), vehicle: saline) was 154 % of control and the T/C (dose: 0.04 mg/kg/injection, schedule: Q01DX009 (ip), vehicle: saline sonified) was 165 % of control. For the same compound, the T/C (dose: 0.05 mg/kg/injection, schedule: Q01DX005 (ip), vehicle: saline) was 155 % of control, the T/C (dose: 0.06 mg/kg/injection, schedule: Q01DX005 (ip), vehicle: saline) was 175 % of control and the T/C (dose: 0.08 mg/kg/injection, schedule: Q01DX009 (ip), vehicle: saline sonified) was 180 % of control. For the same compound, the T/C (dose: 0.1 mg/kg/injection, schedule: Q01DX005 (ip), vehicle: saline) was 155 % of control, the T/C (dose: 0.1 mg/kg/injection, schedule: Q01DX005 (iv), vehicle: saline) was 98 % of control and the T/C (dose: 0.12 mg/kg/injection, schedule: Q01DX005 (ip), vehicle: saline) was 190 % of control. The T/C (dose: 0.12 mg/kg/injection, schedule: Q04DX003 (ip), vehicle: saline) was 154 % of control, the T/C (dose: 0.15 mg/kg/injection, schedule: Q01DX009 (ip), vehicle: saline sonified) was 180 % of control and the T/C (dose: 0.2 mg/kg/injection, schedule: Q01DX005 (ip), vehicle: saline) was 158 % of control. For the same compound, the T/C (dose: 0.2 mg/kg/injection, schedule: Q01DX005 (iv), vehicle: saline) was 100 % of control, the T/C (dose: 0.25 mg/kg/injection, schedule: Q01DX005 (ip), vehicle: saline) was 220 % of control and the T/C (dose: 0.25 mg/kg/injection, schedule: Q04DX003 (ip), vehicle: saline) was 175 % of control. The T/C (dose: 0.3 mg/kg/injection, schedule: Q01DX009 (ip), vehicle: saline sonified) was 180 % of control, the T/C (dose: 0.3 mg/kg/injection, schedule: Q04DX003 (ip), vehicle: saline sonified) was 181 % of control and the T/C (dose: 0.4 mg/kg/injection, schedule: Q01DX005 (ip), vehicle: saline) was 229 % of control. The T/C (dose: 0.5 mg/kg/injection, schedule: Q01DX001 (ip), vehicle: other) was 158 % of control, the T/C (dose: 0.5 mg/kg/injection, schedule: Q01DX001 (ip), vehicle: saline) was 172 % of control and the T/C (dose: 0.5 mg/kg/injection, schedule: Q04DX003 (ip), vehicle: saline) was 87 % of control.
For `CCOc1ccc2c(ccc(/C=C\c3cc(C)c4cccnc4c3O)[n+]2C)c1`, the T/C (dose: 3.13 mg/kg/injection, schedule: Q01DX009 (ip), vehicle: saline with Tween-80) was 121 % of control and the T/C (dose: 6.25 mg/kg/injection, schedule: Q01DX009 (ip), vehicle: saline with Tween-80) was 121 % of control.
